System: NCI-H1341 complex spheroids, percent test/control
Assay: Anticancer human tumor NCI-H1341 cell line growth inhibition [AhR];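 also: spheroids exposed to agents for seven days before readout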
Conditions: for IC50: curve of first compound; for viability, T/C: stronger effect = lower value
Source text: Multicellular complex tumor spheroid response to aryl hydrocarbon receptor antagonists in combination with a variety of drugs and investigational agents in selected tumor cell lines
The current study was undertaken to assess response to aryl hydrocarbon receptor antagonists in combination with standard-of-care drugs and investigational agents in solid tumor complex spheroid models. Complex spheroids include a stromal component modeled by human endothelial cells (HUVEC) and fibroblasts modeled by human mesenchymal stem cells (MSCs). The concentration ranges selected for each drug and investigational agent were based upon clinically achievable concentrations if the clinical Cmax of the agent was known.
Compounds. The drugs and investigational agents: BAY 2416964 (NSC825713), GNF351 (NSC835774), CH-223191 (NSC835775), CPI-455 (NSC825282), aza-TdCyd (NSC777586), decitabine (NSC127716), belinostat (NSC758774), entinostat (NSC756642), pevonedistat (NSC761192), tazemetostat (NSC777109), talazoparib (NSC765396), olaparib (NSC753686), selinexor (NSC780203), nedisertib (M3814, NSC802822), bortezomib (NSC756655), venetoclax (NSC766270), doxorubicin (NSC123127), elimusertib (BAY189344, NSC800525), ceralasertib (AZD6738, NSC777638), TAK-243 (NSC785004), alisertib (NSC759677), etoposide (NSC141540), topotecan (NSC609699), eribulin (NSC707389), gemcitabine (NSC613327), carboplatin (NSC241240), cisplatin (NSC119875), and SN-38 (NSC673596) were obtained from the National Cancer Institute (NCI) Developmental Therapeutics Program Chemical Repository (32). The FDA-approved anticancer drug set is available from the Developmental Therapeutics Program at https://dtp.cancer.gov/organization/dscb/obtaining/available plates.htm. […] The stock solutions were prepared in dimethyl sulfoxide (DMSO, Sigma-Aldrich, St. Louis, MO, cat. D2650), except for the platinum compounds which were prepared in saline (Quality Biological, Gaithersburg, MD, cat. 114-055-101), at 800-fold the tested concentration and stored at -70 degrees C prior to their use. All drugs and investigational agents were tested over a range starting from a high concentration at or near the clinical Cmax and decreasing in half-log increments. If the clinical Cmax for an agent had not been determined, the highest concentration tested was 10 microM (Table 1).
Cell Culture. All cells were maintained in an incubator at 37 degrees C and 5% CO2 with 95% humidity. The PDC lines were cultured according to standard operating procedures established by the NCI PDMR (https://pdmr.cancer.gov). Briefly, all PDCs were thawed and cultured in Matrigel-coated flasks prepared with a working solution of 1X Ham's F-12 nutrient mix, without supplementation (Invitrogen, Waltham, MA, cat. 11765054), 100 U/mL penicillin-streptomycin (Invitrogen, cat. 15140122), and 2.5% Matrigel (Corning Inc., Corning, NY, cat. 354248) for the first three passages. All PDCs were cultured in complete DMEM/F-12 media containing advanced DMEM/F-12 (Invitrogen, cat. 12634028), 4.9% defined fetal bovine serum, heat inactivated (HyClone Laboratories Inc., Logan, UT, cat. SH30070.03HI), 389 ng/mL hydrocortisone (Sigma-Aldrich, cat. H4001), 9.7 ng/mL human EGF recombinant protein (Invitrogen, cat. PHG0313), 23.4 microg/mL adenine (Sigma-Aldrich, cat. A2786), 97.3 U/mL penicillin-streptomycin (Invitrogen, cat. 15140122), 1.9 mM L-glutamine (Invitrogen, cat. 25030081), and 9.7 microM Y-27632 dihydrochloride (Tocris Bioscience, Bristol, United Kingdom, cat. 1254). The PDCs were cultured in complete DMEM/F12 media without 10 microM Y-27632 dihydrochloride for at least two passages prior to the screen. The established cell lines NCI-H1341 and […] were cultured in DMEM/F-12, HEPES (Invitrogen, cat. 11330032), 5% defined fetal bovine serum (HyClone Laboratories Inc., cat. SH30070.03), ITS premix universal culture supplement [insulin (5 microg/mL), transferrin (5 microg/mL), and selenious acid (5 ng/mL)] […]

Structure (SMILES): CC(C)CC(NC(=O)C(Cc1ccccc1)NC(=O)c1cnccn1)B(O)O (stereo not given) + CC(CO)NC(=O)c1cc(-c2ccc(Cl)cc2)nn(-c2cnn(C)c2)c1=O
- IC50 (second compound 0.1 µM): 4.61 nM
- IC50 (second compound 0.316 µM): 4.3 nM
- IC50 (second compound 1 µM): 4.31 nM
- IC50 (second compound 3.16 µM): 3.55 nM
- IC50 (second compound 10 µM): 3.81 nM
- viability, T/C (second compound 0.1 µM, first compound 0.000949 µM): 89.8%
- viability, T/C (second compound 0.1 µM, first compound 0.003 µM): 79.2%
- viability, T/C (second compound 0.1 µM, first compound 0.00949 µM): 0.86%
- viability, T/C (second compound 0.1 µM, first compound 0.03 µM): 0.08%
- viability, T/C (second compound 0.1 µM, first compound 0.0949 µM): 0.36%
- viability, T/C (second compound 0.1 µM, first compound 0.3 µM): 0.13%
- viability, T/C (second compound 0.316 µM, first compound 0.000949 µM): 88.1%
- viability, T/C (second compound 0.316 µM, first compound 0.003 µM): 72.6%
- viability, T/C (second compound 0.316 µM, first compound 0.00949 µM): 0.3%
- viability, T/C (second compound 0.316 µM, first compound 0.03 µM): 0.06%
- viability, T/C (second compound 0.316 µM, first compound 0.0949 µM): 0.04%
- viability, T/C (second compound 0.316 µM, first compound 0.3 µM): 0.68%
- viability, T/C (second compound 1 µM, first compound 0.000949 µM): 70.3%
- viability, T/C (second compound 1 µM, first compound 0.003 µM): 75%
- viability, T/C (second compound 1 µM, first compound 0.00949 µM): 0.31%
- viability, T/C (second compound 1 µM, first compound 0.03 µM): 0.09%
- viability, T/C (second compound 1 µM, first compound 0.0949 µM): 1.13%
- viability, T/C (second compound 1 µM, first compound 0.3 µM): 0.28%
- viability, T/C (second compound 3.16 µM, first compound 0.000949 µM): 86.3%
- viability, T/C (second compound 3.16 µM, first compound 0.003 µM): 58.4%
- viability, T/C (second compound 3.16 µM, first compound 0.00949 µM): 0.91%
- viability, T/C (second compound 3.16 µM, first compound 0.03 µM): 0.08%
- viability, T/C (second compound 3.16 µM, first compound 0.0949 µM): 0.98%
- viability, T/C (second compound 3.16 µM, first compound 0.3 µM): 0.6%
- viability, T/C (second compound 10 µM, first compound 0.000949 µM): 83.4%
- viability, T/C (second compound 10 µM, first compound 0.003 µM): 62.9%
- viability, T/C (second compound 10 µM, first compound 0.00949 µM): 1.02%
- viability, T/C (second compound 10 µM, first compound 0.03 µM): 0.15%
- viability, T/C (second compound 10 µM, first compound 0.0949 µM): 0.12%
- viability, T/C (second compound 10 µM, first compound 0.3 µM): 0.45%

Structure (SMILES): Nc1ccccc1NC(=O)c1ccc(CNC(=O)OCc2cccnc2)cc1 + CC(CO)NC(=O)c1cc(-c2ccc(Cl)cc2)nn(-c2cnn(C)c2)c1=O
- IC50 (second compound 0.1 µM): 144 nM
- IC50 (second compound 0.316 µM): 204 nM
- IC50 (second compound 1 µM): 187 nM
- IC50 (second compound 3.16 µM): 133 nM
- IC50 (second compound 10 µM): 52.3 nM
- viability, T/C (second compound 0.1 µM, first compound 0.0316 µM): 66.7%
- viability, T/C (second compound 0.1 µM, first compound 0.1 µM): 58.1%
- viability, T/C (second compound 0.1 µM, first compound 0.316 µM): 34.4%
- viability, T/C (second compound 0.1 µM, first compound 1 µM): 14.8%
- viability, T/C (second compound 0.1 µM, first compound 3.16 µM): 6.51%
- viability, T/C (second compound 0.1 µM, first compound 10 µM): 0.25%
- viability, T/C (second compound 0.316 µM, first compound 0.0316 µM): 74.3%
- viability, T/C (second compound 0.316 µM, first compound 0.1 µM): 60.1%
- viability, T/C (second compound 0.316 µM, first compound 0.316 µM): 45%
- viability, T/C (second compound 0.316 µM, first compound 1 µM): 15.6%
- viability, T/C (second compound 0.316 µM, first compound 3.16 µM): 6.91%
- viability, T/C (second compound 0.316 µM, first compound 10 µM): 0.6%
- viability, T/C (second compound 1 µM, first compound 0.0316 µM): 60.9%
- viability, T/C (second compound 1 µM, first compound 0.1 µM): 64%
- viability, T/C (second compound 1 µM, first compound 0.316 µM): 40%
- viability, T/C (second compound 1 µM, first compound 1 µM): 16.7%
- viability, T/C (second compound 1 µM, first compound 3.16 µM): 8.93%
- viability, T/C (second compound 1 µM, first compound 10 µM): 0.42%
- viability, T/C (second compound 3.16 µM, first compound 0.0316 µM): 63.4%
- viability, T/C (second compound 3.16 µM, first compound 0.1 µM): 57.3%
- viability, T/C (second compound 3.16 µM, first compound 0.316 µM): 31.3%
- viability, T/C (second compound 3.16 µM, first compound 1 µM): 12.1%
- viability, T/C (second compound 3.16 µM, first compound 3.16 µM): 6.39%
- viability, T/C (second compound 3.16 µM, first compound 10 µM): 0.79%
- viability, T/C (second compound 10 µM, first compound 0.0316 µM): 56.6%
- viability, T/C (second compound 10 µM, first compound 0.1 µM): 41.3%
- viability, T/C (second compound 10 µM, first compound 0.316 µM): 26.4%
- viability, T/C (second compound 10 µM, first compound 1 µM): 12.6%
- viability, T/C (second compound 10 µM, first compound 3.16 µM): 4.04%
- viability, T/C (second compound 10 µM, first compound 10 µM): 0.25%

Reference: PubChem BioAssay AID1919014 (Molecular Pharmacology Branch, DTP, NCI, 2023)
